Experiments:
[1] = tested on: peripheral blood mononuclear cells (PBMC); test: IFNγ ELISPOT assay with HLA-A2 restricted TDO peptides; type: cell-based, human; conditions: for TDO responses shown by ELISPOT vs control peptide, DFR method: 3*10^5 cells/well, control peptide HIVpol463-476, examples; for IFNγ producing T-cell in response to the peptide: PBMC from six cancer patients, after one round of in vitro stimulation; for ex vivo IFNγ ELISPOT response: directly ex vivo, PBMC from different cancer patients, 9*10^5 cells/well
[2] = biological target: T1, HLA-A2 (Homo sapiens, UniProt P04439, D140Y/D185E/D98H/E176V/E277Q/G131W/G231S/I119V/I121R/I166T/I218V/N151K/N90K/P208A/P217A/Q86G/Q94H/R138H/R169H); conditions: positive control peptides, well described; cited from earlier work
T1 construct: made in house; host or cells: E. coli

[3] = tested on: TDO-specific CD8+ T cells; test: Tetramer staining (flow cytometry) of TDO-specific CD8+ T cells; type: cell-based, human; conditions: PBMC from a cancer patient repeatedly stimulated with autologous DC loaded with the peptide (5- or 4-times)
Description: DC were generated by adherence of PBMCs to the plastic surface of a well for one hour in RPMI 1640 (Gibco) before removal of non-adherent cells. The adherent cells were treated with 1000 U/ml GM-CSF (PeproTech, London, UK) and 250 U/ml IL-4 (Peprotech) in X-vivo (Lonza, Copenhagen, Denmark) supplied with 5% human AB serum (Sigma-Aldrich) and placed in a 37° C., 5% CO2 and humidified environment. On day six, maturation cocktail consisting of 1000 U/ml of each TNFα, IL-1P and IL-6 and 1 μg/ml PGE2 (Peprotech) was added to the cells. On day eight, mature DCs were harvested, loaded with 100 μM TDO peptide in X-vivo 15 (Lonza) for four hours in the incubator. After washing, peptide-loaded DCs were mixed with autologous PBLs in X-vivo 15 (Lonza) supplied with 5% human AB serum (Sigma-Aldrich). […] Cultures were stimulated this way twice seven days apart. Further stimulations were performed using autologous, irradiated (25Gy) PBLs loaded with 100 μM TDO peptide. The day after stimulation with PBLs the cultures were supplied with IL-2 (Proleukin; Novartis, Copenhagen, Denmark) to a final concentration of 40 U/ml. Peptide loaded MHC tetramers were […] with 2.5 μl of each phycoerytrhin (PE). […] The stainings were performed in 50 μl PBS (Lonza) supplied with 2% FCS (Gibco) for 15 minutes in the incubator. […]

[4] = tested on: T2 cells; test: 51Cr-release cytotoxicity assay, peptide-pulsed T2 cells; type: cell-based; conditions: short peptides added immediately before the assay, long peptides loaded overnight
Description: Assessment of the cytotoxic capability of the generated T-cell lines was evaluated using a conventional chromium release assay as described. Briefly, target tumor cell lines were labeled with 100 μCi ^51Cr (Perkin Elmer, Skovlunde, Denmark) in 100 μl RPMI 1640 (Gibco) supplied with 10% FCS (Gibco) for one hour at 37° C. After washing of target cells, they were incubated with effector cells at different effector:target (E:T) ratios for four hours in the incubator. Subsequently, the amount of radioactivity in the supernatant was measured using a gamma cell counter (Perkin Elmer Wallac Wizard 1470 Automatic gamma counter).

[5] = tested on: CD4+ T cells in PBMC; test: Cytokine ELISPOT (IFNγ, TNFα, IL-10, IL-17A) with long TDO peptides; type: cell-based, human; conditions: for Peptide-specific CD4 T-cell responses: ELISPOT, cancer patients and healthy donors; for IFNγ producing CD4+ T cells, cancer patients vs healthy donors: IFNγ ELISPOT; for IL-10 production in response to peptide stimulation: IL-10 ELISPOT; for IL-17 production in response to peptide stimulation: IL-17 ELISPOT; for cells producing TNFα in response to peptide, cancer patients vs healthy donors: TNFα ELISPOT

Row | Sequence | TDO responses shown by ELISPOT vs control peptide, DFR method [1] | IFNγ producing T-cell in response to the peptide [1] | affinity towards HLA-A2 [2] | frequency of TDO-specific CD8+ T cells by two color tetramer staining [3] | ex vivo IFNγ ELISPOT response [1] | lysis of T2 cells pulsed with the peptide by TDO123-132 specific cells [4] | Peptide-specific CD4 T-cell responses [5] | IFNγ producing CD4+ T cells, cancer patients vs healthy donors [5] | IL-10 production in response to peptide stimulation [5] | IL-17 production in response to peptide stimulation [5] | cells producing TNFα in response to peptide, cancer patients vs healthy donors [5]
1 | DLFNLSTYL (Peptide fragment of human TDO) [TDO364-372, Polypeptide fragment of human TDO] | statistically significant | presence of IFNγ producing T-cell | – | – | – | – | – | – | – | – | –
2 | ILKEPVHGV [HIVpol468-476] | – | – | high affinity | – | – | – | – | – | – | – | –
3 | KLLVQQFSIL (Peptide fragment of human TDO) [TDO123-132, Polypeptide fragment of human TDO] | statistically significant | presence of IFNγ producing T-cell | – | dramatically increased | detectable directly ex vivo | lysed | – | – | – | – | –
4 | QLLTSLMDI (Peptide fragment of human TDO) [TDO309-317, Polypeptide fragment of human TDO] | statistically significant | presence of IFNγ producing T-cell | – | dramatically increased | detectable directly ex vivo | not | – | – | – | – | –
5 | RFQVPFQLLTSLMDIDSLMT (Peptide fragment of human TDO) [TDO303-322, long (20 amino acids) peptide comprising TDO309-317] | – | – | – | – | – | not | present in both cancer patients and healthy donors | no difference | restricted to cancer patients | restricted to cancer patients | more frequent in healthy donors
6 | TLLELVEAWL (Peptide fragment of human TDO) [TDO200-208, Polypeptide fragment of human TDO] | statistically significant | presence of IFNγ producing T-cell | – | – | detectable directly ex vivo | – | – | – | – | – | –
7 | VSVILKLLVQQFSILETMTA (Peptide fragment of human TDO) [TDO118-137, long (20 amino acids) peptide comprising TDO123-132] | – | – | – | – | – | lysed | present in both cancer patients and healthy donors | no difference | restricted to cancer patients | restricted to cancer patients | more frequent in healthy donors
